According to ChEMBL document CHEMBL4425182, “Trypsin inhibitors for the treatment of pancreatitis” (Bioorg Med Chem Lett, 2016):

Experiments:
Serine protease 1 = Serine protease 1 (Homo sapiens, UniProt P07477); assay: Inhibition of human PRSS1 assessed as enzymatic cleavage of Benzoyl-GlyPro-Arg'Rh110-gammaGlu-OH by fluorescence analysis
[1] = biological target: Voltage-gated inwardly rectifying potassium channel KCNH2 (Homo sapiens, UniProt Q12809); assay: Displacement of [3H]-dofetilide from human ERG expressed in HEK293 cells measured after 90 mins by scintillation proximity assay; assay type: cell-based
[2] = Dissociation constant, pKa of the compound; assay type: physicochemical
Prothrombin = Prothrombin (Homo sapiens, UniProt P00734); assay: Inhibition of human thrombin
Coagulation factor X = Coagulation factor X (Homo sapiens, UniProt P00742); assay: Inhibition of human f10a
Neutrophil elastase = biological target: T1, Neutrophil elastase (Homo sapiens, UniProt P08246); assay: Inhibition of human neutrophil elastase
T1 sequence (P08246 whole entry): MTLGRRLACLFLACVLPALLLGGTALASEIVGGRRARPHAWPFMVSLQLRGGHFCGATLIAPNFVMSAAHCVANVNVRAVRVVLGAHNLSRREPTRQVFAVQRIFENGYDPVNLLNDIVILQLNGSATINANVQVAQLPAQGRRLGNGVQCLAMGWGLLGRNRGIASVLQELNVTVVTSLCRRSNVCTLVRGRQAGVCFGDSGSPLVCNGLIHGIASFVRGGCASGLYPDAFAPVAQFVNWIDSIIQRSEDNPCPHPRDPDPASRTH

Chymotrypsin = Chymotrypsin (Homo sapiens, UniProt Q99895+P17538+P40313+Q6GPI1); assay: Inhibition of human chymotrypsin; assay type: protein assay
[3] = Solubility of the compound at pH 6.8; assay type: physicochemical; settings: buffer
[4] = Lipophilicity, log P of the compound; assay type: physicochemical; settings: octanol/water
[5] = Clearance in Sprague-Dawley rat at 1 mg/kg, iv; assay type: ADME, organism-based; settings: in vivo
[6] = AUC (0 to 24 hrs) in Sprague-Dawley rat at 1 mg/kg, iv; assay type: ADME, organism-based; set-up: time < 24 hr, dose 1 mg/kg, route intravenous; settings: in vivo

Chain of Voltage-gated inwardly rectifying potassium channel KCNH2 (Q12809 whole entry): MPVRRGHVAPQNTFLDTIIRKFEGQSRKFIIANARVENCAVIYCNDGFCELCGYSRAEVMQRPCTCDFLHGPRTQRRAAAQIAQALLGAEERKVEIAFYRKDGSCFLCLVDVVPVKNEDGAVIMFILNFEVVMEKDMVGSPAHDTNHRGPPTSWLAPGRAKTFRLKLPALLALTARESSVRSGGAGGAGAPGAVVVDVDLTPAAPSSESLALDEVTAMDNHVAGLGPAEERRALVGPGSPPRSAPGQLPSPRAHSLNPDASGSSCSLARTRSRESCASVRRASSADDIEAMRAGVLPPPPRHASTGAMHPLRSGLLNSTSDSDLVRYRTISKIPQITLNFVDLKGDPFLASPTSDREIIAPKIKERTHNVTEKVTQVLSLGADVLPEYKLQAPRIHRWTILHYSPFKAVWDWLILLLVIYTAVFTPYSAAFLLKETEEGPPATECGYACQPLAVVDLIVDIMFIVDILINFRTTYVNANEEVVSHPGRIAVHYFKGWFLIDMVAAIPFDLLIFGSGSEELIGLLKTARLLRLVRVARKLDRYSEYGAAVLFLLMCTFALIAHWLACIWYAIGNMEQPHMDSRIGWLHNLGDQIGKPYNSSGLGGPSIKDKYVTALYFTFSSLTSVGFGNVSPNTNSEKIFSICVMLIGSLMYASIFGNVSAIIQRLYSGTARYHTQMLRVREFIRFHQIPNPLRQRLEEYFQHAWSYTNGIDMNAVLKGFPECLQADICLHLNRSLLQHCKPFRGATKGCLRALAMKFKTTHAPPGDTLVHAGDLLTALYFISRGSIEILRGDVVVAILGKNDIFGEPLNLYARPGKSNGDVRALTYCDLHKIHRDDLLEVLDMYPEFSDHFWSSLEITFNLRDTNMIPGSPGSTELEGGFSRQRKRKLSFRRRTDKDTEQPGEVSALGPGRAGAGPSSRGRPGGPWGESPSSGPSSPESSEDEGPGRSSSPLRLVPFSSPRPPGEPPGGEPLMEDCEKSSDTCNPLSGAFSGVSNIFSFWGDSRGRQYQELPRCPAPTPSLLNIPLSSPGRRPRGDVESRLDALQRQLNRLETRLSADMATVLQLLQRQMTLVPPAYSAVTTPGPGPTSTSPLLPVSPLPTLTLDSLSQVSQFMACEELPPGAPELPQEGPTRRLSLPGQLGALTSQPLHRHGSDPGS
Chain of Coagulation factor X (P00742 41-179 limits assumed): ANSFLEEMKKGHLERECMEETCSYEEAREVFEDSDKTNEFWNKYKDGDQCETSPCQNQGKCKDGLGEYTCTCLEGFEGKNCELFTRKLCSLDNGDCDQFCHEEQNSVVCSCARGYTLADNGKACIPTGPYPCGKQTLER
Chain of Coagulation factor X (P00742 235-488 limits assumed): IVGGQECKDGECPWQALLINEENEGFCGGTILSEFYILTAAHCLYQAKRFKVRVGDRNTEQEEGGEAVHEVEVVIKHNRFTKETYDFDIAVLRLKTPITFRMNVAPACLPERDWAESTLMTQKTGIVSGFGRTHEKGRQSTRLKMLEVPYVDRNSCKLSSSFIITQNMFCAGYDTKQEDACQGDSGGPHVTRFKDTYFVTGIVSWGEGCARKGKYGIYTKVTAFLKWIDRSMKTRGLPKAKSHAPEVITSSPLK
Chain of Serine protease 1 (P07477 whole entry): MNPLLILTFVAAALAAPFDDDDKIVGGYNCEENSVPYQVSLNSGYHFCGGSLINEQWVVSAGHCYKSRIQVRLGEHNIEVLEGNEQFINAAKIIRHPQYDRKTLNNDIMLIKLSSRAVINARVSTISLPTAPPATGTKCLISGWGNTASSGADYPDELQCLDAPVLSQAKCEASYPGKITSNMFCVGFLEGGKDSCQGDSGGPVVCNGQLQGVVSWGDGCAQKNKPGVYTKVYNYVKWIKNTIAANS

Row | SMILES | IC50 (Serine protease 1) | IC50 [1] | also measured
1 | CNC(=O)[C@@H]1C[C@H](N2CCc3c(cccc3OCCc3ccccc3)C2)CN1C(=O)c1ccc(CN)c(OC)c1 | 0.003 µM | 4 µM | 
2 | NCc1ccc(C(=O)N2C[C@@H](n3cc(C4CC4)nn3)C[C@H]2C(=O)NCC(c2ccccc2)c2ccccc2)cc1F | 31 µM |  | pKa [2]: 6.2
3 | COc1cc(C(=O)N2C[C@@H](n3cc(C4CC4)nn3)C[C@H]2C(=O)N[C@H]2CCCC[C@@H]2c2ccccc2)ccc1CN | 0.019 µM |  | IC50 (Prothrombin): 54 µM; IC50 (Coagulation factor X): 72 µM; IC50 (Neutrophil elastase): > 100 µM; IC50 (Chymotrypsin): > 100 µM
4 | CNC(=O)[C@@H]1C[C@H](N2CCc3c(ncnc3OCCc3ccccc3)C2)CN1C(=O)c1ccc(CN)c(OC)c1 | 0.005 µM | > 30 µM | 
5 | NCc1ccc(C(=O)N2C[C@@H](n3cc(C4CC4)nn3)C[C@H]2C(=O)NCC(c2ccccc2)c2ccccc2)cc1 | 0.11 µM | 0.5 µM | pKa [2]: 8.5; solubility [3]: > 1000 µM; logP [4]: 3; IC50 (Prothrombin): 94 µM; IC50 (Coagulation factor X): 71 µM; IC50 (Neutrophil elastase): > 100 µM; IC50 (Chymotrypsin): > 100 µM
6 | CNC(=O)[C@@H]1C[C@H](n2cc(C3CC3)nn2)CN1C(=O)c1ccc(CN)c(OC)c1 | 2.1 µM | > 30 µM | 
7 | COc1cc(C(=O)N2C[C@@H](n3cc(C4CC4)nn3)C[C@H]2C(=O)N[C@@H]2C[C@H]2c2ccccc2)ccc1CN | 0.11 µM | 22 µM | 
8 | CNC(=O)[C@@H]1C[C@H](N2CCc3c(cccc3OC)C2)CN1C(=O)c1ccc(CN)c(OC)c1 | 0.1 µM | > 30 µM | 
9 | COc1cc(C(=O)N2C[C@@H](n3cc(C4CC4)nn3)C[C@H]2C(=O)N2CC[C@H](c3ccccc3)C2)ccc1CN | 0.22 µM | 14 µM | 
10 | CNC(=O)[C@@H]1C[C@H](N2CCc3c(ncnc3OCCC3CC3)C2)CN1C(=O)c1ccc(CN)c(OC)c1 | 0.006 µM | > 30 µM | 
11 | COc1cc(C(=O)N2C[C@@H](n3cc(C4CC4)nn3)C[C@H]2C(=O)NCC(c2ccccc2)c2ccccc2)ccc1CN | 0.011 to 0.014 µM | 2.4 µM | pKa [2]: 9.2; solubility [3]: > 1000 µM; clearance [5]: 33 mL/min/kg; AUC(0-t) at 24 h [6]: 1.03 µM·h; IC50 (Prothrombin): 27 µM; IC50 (Coagulation factor X): 31 µM; IC50 (Neutrophil elastase): 55 µM; IC50 (Chymotrypsin): 15 µM
12 | CNC(=O)[C@@H]1C[C@H](N2CCc3ccccc3C2)CN1C(=O)c1ccc(CN)c(OC)c1 | 0.49 µM | > 30 µM | 
13 | CNC(=O)[C@@H]1C[C@H](N2CCc3c(cccc3OCCC3CC3)C2)CN1C(=O)c1ccc(CN)c(OC)c1 | 0.002 µM | 11 µM | 
14 | COc1cc(C(=O)N2C[C@@H](n3cc(C4CC4)nn3)C[C@H]2C(=O)N[C@H]2C[C@@H]2c2ccccc2)ccc1CN | 0.96 µM |  | 
15 | CNC(=O)[C@@H]1C[C@H](N2CCc3c(cccc3OCCOC)C2)CN1C(=O)c1ccc(CN)c(OC)c1 | 0.008 µM | > 30 µM | solubility [3]: > 1000 µM; clearance [5]: 9 mL/min/kg; AUC(0-t) at 24 h [6]: 3.88 µM·h; IC50 (Prothrombin): > 100 µM; IC50 (Coagulation factor X): > 100 µM; IC50 (Neutrophil elastase): > 100 µM; IC50 (Chymotrypsin): > 100 µM
16 | COc1cc(C(=O)N2C[C@@H](n3cc(C4CC4)nn3)C[C@H]2C(=O)NCCc2ccccc2)ccc1CN | 0.16 µM |  | 
17 | COc1cc(C(=O)N2C[C@@H](n3cc(C4CC4)nn3)C[C@H]2C(=O)N2CC[C@@H](c3ccccc3)C2)ccc1CN | 0.33 µM |  | 
18 | Cc1cc(C(=O)N2C[C@@H](n3cc(C4CC4)nn3)C[C@H]2C(=O)NCC(c2ccccc2)c2ccccc2)ccc1CN | 0.11 µM |  | pKa [2]: 8.7
